In article PMC11943946, “Anti-Neuroinflammatory Eremophilane Sesquiterpenoids from Marine-Derived Fungus Phoma sp. DXH009” (Marine Drugs, 2025):

Legend:
[1] = system: LPS-stimulated microglia BV2 cells; assay: Cellular NO production in LPS-stimulated BV2 microglia; format: cell-based; conditions: for NO inhibition (SAR statement) / reduction in NO content: 20 μM; for NO inhibition (SAR statement): relative to analogues with intact C-6–C-7 / C-11–C-12 motifs; for reduction in NO content: vs LPS control cells
Experimental: (§1) The cellular NO levels were determined using a Nitric Oxide Assay Kit with DAF-FM DA (Beyotime, Nantong, China). A total of 5000 cells were planted in 96-well plates and maintained for 24 h. Then, they were induced with 1 μg/mL lipopolysaccharide (LPS) in the presence or absence of compounds at a final concentration of 20 μM for 24 h. Untreated wells were used as control. Then, supernatant of the culture medium was investigated with a Nitric Oxide Assay Kit with DAF-FM DA (Beyotime, S0020S) per the manufacturer’s instruction. Cells were stained with 2 µM hochest 33,342 at room temperature for 10 min, then cell numbers were auto-counted using the high-content screening system. The cell number in the LPS control group was set as 100%, and the relative cell survival ratios were calculated.

BV2 microglial cells = assay: BV2 cell viability / proliferation (CCK-8, cell count); format: cell-based; conditions: 20 µM
Experimental: as §1
(§2) BV2 microglial cells were seeded into 96-well plates at a density of 1 × 10^4 cells/well and allowed to adhere for 24 h. Cells were then exposed to different concentrations (20 μM for 1–9; 0, 1, 5, 10, 20, 50, 100 μM for 5) of the test compounds (1–9) in triplicate, with DMSO concentrations normalized across all treatment groups. After 24 h incubation, 10 μL CCK-8 reagent (Beyotime Biotechnology, Nantong, China) was added to each well, followed by 30 min incubation at 37 °C. Absorbance at 450 nm was quantified using a BioTek microplate reader (BioTek, Winooski, VT, USA), with cell viability calculated relative to vehicle-treated controls.

[2] = as above; format: cell-based; conditions: mouse; BV2 cells, 24 h; read-out: IC50 against BV2 cell proliferation (cytotoxicity)
Experimental: as §1, §2

[3] = system: LPS-treated BV2 microglia cells; assay: Microglia polarization markers ARG 1 and iNOS (immunofluorescence, immunoblot); format: cell-based; conditions: 2.5, 5, 10 μM, LPS 0.5 μg/mL, 24 h
Experimental: (§3) Cells or tissues were lysed with RIPA lysis buffer containing protease and phosphatase inhibitor cocktail and total protein was extracted and quantified by using a protein determination kit (Thermo Fisher Scientific, Cat#23227, Beijing, China). Protein samples were prepared by centrifugation at the speed of 12,000× g for 30 min at 4 °C; the supernatant was boiled at 95 °C for 10 min and then subjected to SDS-PAGE. An amount of 15 µg of total protein was separated by electrophoresis in a 10% SDS-polyacrylamide gel and transferred to a PVDF membrane (Thermo Fisher Scientific, Cat#88520, Beijing, China). After blocking, the full membranes were cropped according to the molecular weight of examined proteins and incubated with antibodies at 4 °C overnight. […] The average protein levels of control group cells or control mice from each independent experiment or mice were set as 1, and relative changes were calculated.
For the immunofluorescence assay, cells were fixed with pre-cold ethanol at –20 °C, then blocked and incubated with anti-iNOS (Abcam, ab178945) and mouse anti-ARG 1 (Proteintech, 66129) at 4 °C overnight. […] Fluorescence images were acquired using a confocal microscope (Olympus, Tokyo, Japan).

NF-κB p65 = NF-κB p65 signaling pathway (Western blot); format: cell-based; conditions: 2.5, 5, 10 μM, LPS-treated BV2 cells
Experimental: as §3, with “overnight. The used antibodies were listed as follows: anti-iNOS (Abcam, ab178945, Cambridge, UK), anti-COX2 (Affinity, AF7003, Changzhou, China), anti-actin (Affinity Biosciences, AF7018, Changzhou, China), anti-ARG1 (Proteintech, 66129, Wuhan, China), anti-IL-1β (Proteintech, 26048, Wuhan, China), anti-GAPDH (Bioss, bs-41373R, Beijing, China), anti-IL-6 (Affinity, DF6087, Changzhou, China), anti-TNFα (Affinity, AF7014, Changzhou, China), anti-IBA1 (Affinity, DF6442, Changzhou, China).” for “overnight.”

[4] = system: LPS-treated BV2 microglia cells; assay: Inflammatory markers in LPS-treated microglia cells (Western blot); format: cell-based; conditions: 2.5, 5, 10 μM
Experimental: as §3, with “overnight. The used antibodies were listed as follows: anti-iNOS (Abcam, ab178945, Cambridge, UK), anti-COX2 (Affinity, AF7003, Changzhou, China), anti-actin (Affinity Biosciences, AF7018, Changzhou, China), anti-ARG1 (Proteintech, 66129, Wuhan, China), anti-IL-1β (Proteintech, 26048, Wuhan, China), anti-GAPDH (Bioss, bs-41373R, Beijing, China), anti-IL-6 (Affinity, DF6087, Changzhou, China), anti-TNFα (Affinity, AF7014, Changzhou, China), anti-IBA1 (Affinity, DF6442, Changzhou, China).” for “overnight.”

LPS-treated mice = assay: LPS-induced neuroinflammation mouse model (cortex and hippocampus); format: in vivo; conditions: intraperitoneal; for expression levels of IBA1 in cortex / inflammatory markers iNOS, COX2, IL-1β, IL-6 in cortex (mRNA and protein) / protein level of ARG 1 in cortex: 5 at 10, 20, 40 mg/kg or Dex 15 mg/kg
Experimental: Cells or tissues were lysed with RIPA lysis buffer containing protease and phosphatase inhibitor cocktail and total protein was extracted and quantified by using a protein determination kit (Thermo Fisher Scientific, Cat#23227, Beijing, China). Protein samples were prepared by centrifugation at the speed of 12,000× g for 30 min at 4 °C; the supernatant was boiled at 95 °C for 10 min and then subjected to SDS-PAGE. An amount of 15 µg of total protein was separated by electrophoresis in a 10% SDS-polyacrylamide gel and transferred to a PVDF membrane (Thermo Fisher Scientific, Cat#88520, Beijing, China). After blocking, the full membranes were cropped according to the molecular weight of examined proteins and incubated with antibodies at 4 °C overnight. The used antibodies were listed as follows: anti-iNOS (Abcam, ab178945, Cambridge, UK), anti-COX2 (Affinity, AF7003, Changzhou, China), anti-actin (Affinity Biosciences, AF7018, Changzhou, China), anti-ARG1 (Proteintech, 66129, Wuhan, China), anti-IL-1β (Proteintech, 26048, Wuhan, China), anti-GAPDH (Bioss, bs-41373R, Beijing, China), anti-IL-6 (Affinity, DF6087, Changzhou, China), anti-TNFα (Affinity, AF7014, Changzhou, China), anti-IBA1 (Affinity, DF6442, Changzhou, China). The membranes were washed to remove unbound antibodies and then incubated with HRP-conjugated secondary antibodies at room temperature for 45 min. Protein bands were visualized one by one with an ECL kit (Millipore, Cat#6-201BP, Beijing, China). The uncropped immunoblot data were uploaded as a Supplementary File. Densitometry analysis was performed using Image J Software, Version 1.54p (Rawak Software Inc., Stuttgart, Germany) relative to the loading control, β-actin; GAPDH; or tubulin. The average protein levels of control group cells or control mice from each independent experiment or mice were set as 1, and relative changes were calculated.
Male, 4-week-old C57BL/6J mice were obtained from Peking SiPeiFu Biotechnology Co., Ltd. (Beijing, China), with quality certificate number No.110324241107423512. After acclimation, mice were weighted and divided randomly into 6 groups, including control, LPS control mice, LPS + dexamethasone (Dex, 15 mg/kg), and LPS + HN-005 (10, 20, 40 mg/kg). Mice were intraperitoneally injected with dexamethasone or compound 5 for 2 days, while the control and LPS control group was intraperitoneally injected with an identical volume of 200 μL 0.9% saline. A total of 6 mg/kg LPS was intraperitoneally injected on the second day beyond the control group. After treatment, the mice were weighed and euthanized for brain anatomy.
Mice were anesthetized and their chest dissected to expose the heart sufficiently. The infusion needle penetrated the ventriculus sinister by about 0.5 cm and perfused it with 40 mL sterile PBS buffer until the liver turned white. Then, the prefrontal cortex and hippocampus were separated and preserved. For the immunochemistry assay, the cortex and hippocampus were fixed at 4% PFA at room temperature for 2–4 days. The fixed brain was embedded into paraffin and sectioned at 5 μm in the coronal plane using a sliding microtone (Leica, CM1950, Weztlar, Germany), then blocked with 5% goat serum TBS buffer at room temperature for one hour. After blocking, tissue slides were incubated with the first antibody against IBA1 (Affinity, DF6442, Changzhou, China) at 4 °C for 16 h, then rinsed with TBST three times and incubated with Alex flour 555 conjugated goat anti-rabbit secondary antibody (1:500) and DAPI (1:1000) at 4 °C overnight. A section incubated only with the secondary antibody was used as a negative control. For HE staining, the section was stained with an H&E staining kit (Servicebio, G1076, Wuhan, China) per the manufacturer’s instruction. Fluorescence images were acquired using a confocal microscope (Olympus, Tokyo, Japan). […]

[5] = system: Amaranthus hypochondriacus; design: method as in PMID 25603174; conditions: read-out: IC50 herbicidal effect (radicle growth); cited from earlier work
Echinochloa crus-galli = system: Echinochloa crus-galli; design: method as in PMID 25603174; conditions: read-out: IC50 herbicidal effect (radicle growth); cited from earlier work
Lactuca sativa = system: Lactuca sativa; design: method as in doi:10.1584/jpestics.14.223; conditions: 250 ppm; cited from earlier work
Ehrlich carcinoma cells = system: Ehrlich carcinoma cells; design: method as in doi:10.1007/s10600-014-0836-9; conditions: cited from earlier work
Vero cells = system: Vero cells; design: method as in PMID 25734623; conditions: noncancerous Vero cells; read-out: IC50 toxicity; cited from earlier work
[6] = system: early-stage PD participants; design: method as in PMID 38504306; conditions: Phase II trial NCT04542915; cited from earlier work
[7] = system: LPS-activated BV-2 microglia; design: method as in PMID 34605647; conditions: read-out: IC50 suppressing nitric oxide production; cited from earlier work
NF-κB signaling = system: NF-κB signaling; design: method as in PMID 38616356, PMID 31590042; conditions: BV2 microglia; read-out: IC50 suppressing NF-κB signaling; cited from earlier work
AD mice = system: AD mice; design: method as in PMID 38616356, PMID 31590042; conditions: relative to untreated AD mice; cited from earlier work
APP/PS1 transgenic mice = system: APP/PS1 transgenic mice; design: method as in PMID 39004599, PMID 25686105; conditions: cited from earlier work

SMILES: CC1C(O)CCC2=CC(=O)C(C(C)(C)O)=CC21C (stereo not shown) [Compound 2, Phomenone D]
- NO inhibition (SAR statement) [1]: high reduction in NO inhibition

SMILES: C=C(C)C1=C[C@@]2(C)C(=CC1=O)CC[C@@H](O)[C@@H]2C [Compound 9, 6-dehydropetasol]
- proliferation inhibition (cytotoxicity) (BV2 microglial cells): 35–85%

SMILES: C=C(C)[C@@]12O[C@@H]1[C@@]1(C)C(=C[C@@H]2O)CC[C@@H](O)[C@@H]1C [Compound 5, dihydrosporogen AO-1]
- reduction in NO content ([1]; 24 h): 78%
- EC50 ([1]; Mus musculus, BV-2, LPS-treated BV2 microglial cells, 24 h, read-out: EC50 in decreasing cellular NO production): 3.11 µM
- selectivity index (SI) ([1]; cytotoxicity IC50 vs NO EC50, BV2 cells): 12.2
- IC50 [2]: 38 µM
- iNOS and ARG 1 protein levels [3]: dose-dependently reversed iNOS elevations and ARG 1
- ratio of ARG 1 to iNOS [3]: corrected the decreased ratio of ARG 1 to iNOS
- activation of NF-κB axis (phosphorylated NF-κB p65) (NF-κB p65): dose-dependently reversed the activation of the NF-κB axis
- total level of NF-κB p65 (NF-κB p65): no major change
- level of inflammatory markers IBA1, COX-2, TNF-α, IL-1β, IL-6 [4]: efficiently reversed the increases in the level of inflammatory markers
- expression levels of IBA1 in cortex (LPS-treated mice): markedly decreased the expression levels of IBA1
- inflammatory markers iNOS, COX2, IL-1β, IL-6 in cortex (mRNA and protein) (LPS-treated mice): efficiently suppressed the activation of these inflammatory markers
- protein level of ARG 1 in cortex (LPS-treated mice): dose-dependently increased the protein level of ARG 1
- neuroinflammation in hippocampus tissue (LPS-treated mice; 10, 20, 40 mg/kg): inhibits neuroinflammation in the hippocampus tissue
- IC50 [5]: 170 µM
- IC50 (Echinochloa crus-galli): 300 µM
- inhibition (radicle growth) (Lactuca sativa): 70%
- ED50 cytotoxicity (Ehrlich carcinoma cells): 0.4 mM
- IC50 (Vero cells): 24 mM

SMILES: C=C(C)[C@@H]1C[C@@]2(C)C(=CC1=O)CC[C@@H](O)[C@@H]2C [Compound 8, petasol]
- proliferation inhibition (cytotoxicity) (BV2 microglial cells): 35–85%

SMILES: Oc1ccc(/C=C/c2cc(O)cc(O)c2)cc1 [Resveratrol]
- reduction in CSF TNF-α levels [6]: 31.6%

SMILES: C=C1CO[C@@]2(O)CC3=CC(=O)C(O)=C(C)[C@@]3(C)C[C@@]12O [septoreremophilane F]
- IC50 [7]: 12 ± 0.32 µM

SMILES: C=C(C)[C@]1(O)C[C@@]2(C)C(=CC1=O)CC[C@@H](O)[C@@H]2C [Compound 3, Hydroxypetasol]
- NO inhibition (SAR statement) [1]: high reduction in NO inhibition

SMILES: COc1cc(/C=C/C(=O)CC(=O)/C=C/c2ccc(O)c(OC)c2)ccc1O [curcumin]
- IC50 (NF-κB signaling): 4.7 µM
- improvement in radial arm maze errors (AD mice): 37.2%

SMILES: CC(C)(O)c1coc(S(=O)(=O)NC(=O)Nc2c3c(cc4c2CCC4)CCC3)c1 [MCC950]
- attenuation of hippocampal IL-1β production (APP/PS1 transgenic mice): 68.5%

SMILES: C[C@@H]1C[C@H]2[C@@H]3CCC4=CC(=O)C=C[C@]4(C)[C@@]3(F)[C@@H](O)C[C@]2(C)[C@@]1(O)C(=O)CO [Dex, dexamethasone, reference compound]
- reduction in NO content ([1]; 24 h): 77%
- expression levels of IBA1 in cortex (LPS-treated mice): markedly decreased the expression levels of IBA1
- inflammatory markers iNOS, COX2, IL-1β, IL-6 in cortex (mRNA and protein) (LPS-treated mice): efficiently suppressed the activation of these inflammatory markers
- protein level of ARG 1 in cortex (LPS-treated mice): no induction effect was observed
